Tests used:
[1] = system: PSC-derived keratinocytes; experiment: Adherent monolayer culture of dissociated PSC-derived hair-bearing skin organoid cells: colony emergence and morphology; format: cell-based, human; settings: H9 ES and 1C iPS derived cells, HKGS medium supplemented with the small molecule(s) (FIG. 11)
Description: The aggregates of Example 1 were plated under non-adherent conditions in an AggreWell™ or a 96-well plate, and cultured for 12 days in a skin organoid induction medium, such as STEMdiff™ Skin Organoid Induction Medium (STEMCELL Technologies). Following, the skin organoids are transferred into STEMdiff™ Skin Organoids Maturation Medium (STEMCELL Technologies) for at least 8 weeks, adding or changing the medium every 3-4 days. After the skin organoids have matured, preferably presenting as hair-bearing skin organoids (e.g. hair placode present skin organoids), they are dissociated overnight in a 37 degree incubator in a Dispase solution. […]
Various commercially available cell culture media are marketed for the purpose of culturing human epidermal keratinocytes: EpiLife™ Defined Growth Supplement for use with EpiLife™ medium; Gibco™ Human Keratinocyte Growth Supplement for use with EpiLife medium or Medium 154; and Cnt-57 Epithelial Proliferation Medium. […] Population doublings were also assessed over several weeks for keratinocytes grown from various PSC lines in a culture medium of this disclosure in comparison to EpiLife EDGS and EpiLife HKGS. […]

TP63 = experiment: FACS analysis of TP63+ cells; format: cell-based, human; settings: 1C iPS derived skin organoid cells, HKGS medium with or without supplement (FIG. 12)
Text: WLS-1C iPS cells were formed into hair-bearing skin organoids as described herein and dissociated prior to plating the cells in EpiLife HKGS, or in EpiLife HKGS supplemented with the indicated small molecules. The cells were stained for TP63 expression and analyzed by FACS.
The ability of a commercially available medium to expand PSC-derived keratinocytes could be somewhat restored upon supplementation with one or more small molecule inhibitors, but not to the levels of DermaCult™ (FIG. 11). Specifically, HKGS medium was supplemented with A83-01, DAPT, Y-27632, or all three of A83-01, DAPT, and Y-27632. […] These findings were confirmed in a different experiment where 1C iPS cells were cultured in the foregoing media conditions and analyzed for p63 expression, to distinguish keratinocytes from other cell types included in the PSC-derived skin organoids, such as fibroblasts (FIG. 12).

Structure (SMILES): C[C@@H](N)[C@H]1CC[C@H](C(=O)Nc2ccncc2)CC1 [Y-27632]
- emergence of colonies in supplemented HKGS medium [1]: emergence of colonies
- emergence of p63+ cells (TP63): emergence of comparable numbers of p63+ cells
